23 compounds from patent US9670203B2 (BeiGene, LTD., priority 2013, dated 2017) can be followed below.

Like-named read-outs stand apart in the source and are kept apart here.

In one assay the target is wild type B-Raf (Homo sapiens (Human), UniProt P15056). Kind of assay: WT B-Raf IC50 assay, time-resolved fluorescence energy transfer. In kind it is biochemical. The procedure: The IC50 for each compound was calculated by non linear regression by Graphpad Prism software.
In another assay the test system is A375. Kind of assay: Anti-proliferative activity EC50 assay (CellTiter-Glo) in A375. The assay is classed as cell-based. The note with it: Homo sapiens, A-375, 72 h; 3-day exposure; read-out: Cell Proliferation EC50 (nM) A375. The procedure: The growth-inhibitory activity of compounds in A375 and p61-A375, was determined using CellTiter-Glo luminescent cell viability assay (Promega). The 2,000 cells were seeded per well of a 96-well plate to ensure logarithmic growth could occur over the 3 days treatment period. Cells were left to attach for 16 hours, cells were treated in duplicate with a 10-point dilution series. Following a 3-day exposure to compounds disclosed herein, a volume of CellTiter-Glo reagent equal to the volume of cell culture medium present in each well was added. Mixture was mixed on an orbital shaker for 2 minutes to allow cell lysis, followed by 10 minutes incubation at room temperature to allow stabilization of luminescent signal, which corresponded to quantitation of ATP and thus the quantitation of metabolically active cells. Luminescent signal was measured using Pherastar FS reader (BMG Labtech).
EC50 values for growth inhibition were calculated by fitting dose-dependent data to the four-parameter logistic model using GraphPad Prism software.

A further assay has as its target C-Raf (Y340D/Y341D) (Homo sapiens (Human), UniProt P04049, Y340D/Y341D). Briefly: Raf IC50 assay, time-resolved fluorescence energy transfer, C-Raf (Y340D/Y341D). The assay is classed as biochemical. The note with it: 0.1 mM ATP.
The target of another assay is B-Raf (V600E) (Homo sapiens (Human), UniProt P15056, V600E). Kind of assay: Raf IC50 assay, time-resolved fluorescence energy transfer, B-Raf (V600E). The assay is classed as biochemical. The note with it: 0.1 mM ATP; read-out: IC50 (nM) B_Raf^V600E.
Setting [1] is: 2.5 mM ATP, read-out: IC50 (nM) B-Raf^WT 2.5 mM ATP.
The mark [2] stands for this setting: Km ATP (2.9 μM ATP), read-out: IC50 (nM) B-Raf^WT Km ATP.

Chain of wild type B-Raf (P15056 whole entry): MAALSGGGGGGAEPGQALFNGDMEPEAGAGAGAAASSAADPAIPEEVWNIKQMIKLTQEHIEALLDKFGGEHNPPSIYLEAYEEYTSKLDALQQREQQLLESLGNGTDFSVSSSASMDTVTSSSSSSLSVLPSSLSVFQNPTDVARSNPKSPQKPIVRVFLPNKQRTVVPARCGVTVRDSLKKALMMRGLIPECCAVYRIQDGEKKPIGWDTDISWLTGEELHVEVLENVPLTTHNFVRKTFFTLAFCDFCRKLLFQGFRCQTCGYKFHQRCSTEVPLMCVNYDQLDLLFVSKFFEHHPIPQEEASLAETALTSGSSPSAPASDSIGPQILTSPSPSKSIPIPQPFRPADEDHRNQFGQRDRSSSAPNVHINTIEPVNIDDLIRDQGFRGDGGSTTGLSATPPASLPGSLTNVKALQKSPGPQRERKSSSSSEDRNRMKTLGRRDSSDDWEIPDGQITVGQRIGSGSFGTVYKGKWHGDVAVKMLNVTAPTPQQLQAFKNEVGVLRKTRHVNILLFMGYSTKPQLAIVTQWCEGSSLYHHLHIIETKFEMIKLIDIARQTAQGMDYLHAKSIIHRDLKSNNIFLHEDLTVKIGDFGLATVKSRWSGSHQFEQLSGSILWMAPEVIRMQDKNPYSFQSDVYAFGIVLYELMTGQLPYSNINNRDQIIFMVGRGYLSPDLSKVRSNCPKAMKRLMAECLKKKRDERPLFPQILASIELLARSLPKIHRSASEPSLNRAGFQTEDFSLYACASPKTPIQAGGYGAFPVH
Chain of C-Raf (Y340D/Y341D) (P04049 whole entry Y340D/Y341D): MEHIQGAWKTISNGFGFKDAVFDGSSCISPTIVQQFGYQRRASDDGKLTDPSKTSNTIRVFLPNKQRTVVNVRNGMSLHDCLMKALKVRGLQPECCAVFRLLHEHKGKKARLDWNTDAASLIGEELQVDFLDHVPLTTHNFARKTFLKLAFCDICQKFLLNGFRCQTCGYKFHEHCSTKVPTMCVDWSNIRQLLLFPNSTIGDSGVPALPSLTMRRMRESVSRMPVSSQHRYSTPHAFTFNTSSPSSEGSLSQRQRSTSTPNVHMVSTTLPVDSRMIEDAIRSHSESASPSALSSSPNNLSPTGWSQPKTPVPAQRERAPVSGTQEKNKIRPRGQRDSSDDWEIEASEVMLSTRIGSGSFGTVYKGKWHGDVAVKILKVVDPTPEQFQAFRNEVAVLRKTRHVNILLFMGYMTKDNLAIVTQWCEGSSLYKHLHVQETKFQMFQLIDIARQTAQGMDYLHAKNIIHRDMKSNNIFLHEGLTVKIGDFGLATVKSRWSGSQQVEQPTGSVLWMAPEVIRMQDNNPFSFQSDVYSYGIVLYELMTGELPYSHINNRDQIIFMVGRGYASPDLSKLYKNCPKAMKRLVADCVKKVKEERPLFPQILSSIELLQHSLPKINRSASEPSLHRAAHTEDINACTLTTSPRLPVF
Chain of B-Raf (V600E) (P15056 whole entry V600E): as the sequence (P15056 whole entry) above, with V600E counted along it

For `O=C1CCc2c(Oc3ccc4c(c3)[C@H]3[C@H](NC(=O)Nc5cccc(C(F)(F)F)c5)[C@H]3O4)ccnc2N1` [Compound 1.1, 1-((1S,1aS,6bS)-5-((7-oxo-5,6,7,8-tetrahydro-1,8-naphthyridin-4-yl)oxy)-1a,6b-dihydro-1H-cyclopropa[b]benzofuran-1-yl)-3-(3-(trifluoromethyl)phenyl)urea], the half-maximal inhibitory concentration (IC50) at wild type B-Raf (setting [1]) was 43 nM; at wild type B-Raf (setting [2]), 13 nM; against C-Raf (Y340D/Y341D), 1.6 nM; at B-Raf (V600E), 8.3 nM. Also, the EC50 in the assay with A375 is 109 nM.

With `O=C1CCc2c(Oc3ccc4c(c3)[C@H]3[C@H](NC(=O)Nc5cc(C(F)(F)F)ccn5)[C@H]3O4)ccnc2N1` [Compound 1.2], the half-inhibitory concentration (IC50) was 18 nM on wild type B-Raf (setting [1]), 6.3 nM on wild type B-Raf (setting [2]), 0.77 nM at C-Raf (Y340D/Y341D) and 4 nM at B-Raf (V600E). In the assay on A375, the EC50 was 122 nM.

Regarding `COc1ccc(CNC(=O)N[C@@H]2[C@H]3Oc4ccc(Oc5ccnc6c5CCC(=O)N6)cc4[C@@H]23)cc1` [Compound 1.3], the IC50 stood at 0.54 nM on C-Raf (Y340D/Y341D) and 40 nM at B-Raf (V600E).

On to `COc1cccc(NC(=O)N[C@@H]2[C@H]3Oc4ccc(Oc5ccnc6c5CCC(=O)N6)cc4[C@@H]23)c1Cl` [Compound 1.6], for which the IC50 on wild type B-Raf (setting [1]) was 11 nM; at wild type B-Raf (setting [2]), 4.5 nM; on C-Raf (Y340D/Y341D), 0.33 nM; on B-Raf (V600E) it was 1.9 nM. In the assay with A375, the EC50 was 229 nM.

With `Cc1cc(Cl)ccc1NC(=O)N[C@@H]1[C@H]2Oc3ccc(Oc4ccnc5c4CCC(=O)N5)cc3[C@@H]12` [Compound 1.7], the IC50 was determined as 2.6 nM on wild type B-Raf (setting [2]), 0.35 nM against C-Raf (Y340D/Y341D) and 1.1 nM at B-Raf (V600E).

Take `O=C1CCc2c(Oc3ccc4c(c3)[C@H]3[C@H](NC(=O)Nc5ccc(Cl)cc5C(F)(F)F)[C@H]3O4)ccnc2N1` [Compound 1.9]: the IC50 at wild type B-Raf (setting [2]) turned out to be 21 nM; at C-Raf (Y340D/Y341D), 1.6 nM; on B-Raf (V600E) it was 9.5 nM.

Turning to `O=C1CCc2c(Oc3ccc4c(c3)[C@H]3[C@H](NC(=O)Nc5cc(F)cc(C(F)(F)F)c5)[C@H]3O4)ccnc2N1` [Compound 1.11], the IC50 was determined as 110 nM on wild type B-Raf (setting [1]), 30 nM at wild type B-Raf (setting [2]), 1.8 nM against C-Raf (Y340D/Y341D) and 5.5 nM on B-Raf (V600E). Besides, the EC50 in the assay with A375 came to 147 nM.

As for `C#Cc1cccc(NC(=O)N[C@@H]2[C@H]3Oc4ccc(Oc5ccnc6c5CCC(=O)N6)cc4[C@@H]23)c1` [Compound 1.14], the half-maximal inhibitory concentration (IC50) is 8.5 nM at wild type B-Raf (setting [1]), 2.8 nM on wild type B-Raf (setting [2]) and 1.9 nM at B-Raf (V600E). Besides, in the assay on A375, the EC50 came to 127 nM.

For the compound `O=C1CCc2c(Oc3ccc4c(c3)[C@H]3[C@H](NC(=O)Nc5ccc(C(F)(F)F)cc5F)[C@H]3O4)ccnc2N1` [Compound 1.20], the IC50 on wild type B-Raf (setting [2]) is 23 nM; at C-Raf (Y340D/Y341D), 2.7 nM; on B-Raf (V600E) it was 13 nM.

In the case of `O=C1CCc2c(Oc3ccc4c(c3)[C@H]3[C@H](NC(=O)Nc5cc(C(F)(F)F)ccc5F)[C@H]3O4)ccnc2N1` [Compound 1.33], the values for the IC50 at wild type B-Raf (setting [1]), at wild type B-Raf (setting [2]) and on B-Raf (V600E) were 75 nM, 19 nM and 9.5 nM, respectively. For the same compound, the EC50 in the assay on A375 turned out to be 137 nM.

Take `O=C1CCc2c(Oc3ccc4c(c3)[C@H]3[C@H](NC(=O)Nc5c(F)cc(F)cc5F)[C@H]3O4)ccnc2N1` [Compound 1.40]: the half-inhibitory concentration (IC50) was 2 nM at wild type B-Raf (setting [2]), 0.2 nM on C-Raf (Y340D/Y341D) and 1.6 nM at B-Raf (V600E).

On to `O=C1CCc2c(Oc3ccc4c(c3)[C@H]3[C@H](NC(=O)Nc5c(F)ccc(F)c5F)[C@H]3O4)ccnc2N1` [Compound 1.48], for which the results for the concentration for half-maximal inhibition (IC50) on wild type B-Raf (setting [1]), on wild type B-Raf (setting [2]) and on B-Raf (V600E) were 7.9 nM, 2.5 nM and 0.74 nM, respectively. For the same compound, in the assay with A375, the EC50 came out at 686 nM.

Turning to `CC(C)(N)c1cc(NC(=O)N[C@@H]2[C@H]3Oc4ccc(Oc5ccnc6c5CCC(=O)N6)cc4[C@@H]23)cc(C(F)(F)F)c1` [Compound 1.70, 1-(3-(2-aminopropan-2-yl)-5-(trifluoromethyl)phenyl)-3-((1S,1aS,6bS)-5-((7-oxo-5,6,7,8-tetrahydro-1,8-naphthyridin-4-yl)oxy)-1a,6b-dihydro-1H-cyclopropa[b]benzofuran-1-yl)urea], the figures for the half-maximal inhibitory concentration (IC50) at wild type B-Raf (setting [2]), against C-Raf (Y340D/Y341D) and at B-Raf (V600E) were 15 nM, 0.81 nM and 7.4 nM, respectively.

`O=C1CCc2c(Oc3ccc4c(c3)[C@@H]3[C@@H](NC(=O)Nc5cccc(C(F)(F)F)c5)[C@@H]3O4)ccnc2N1` [Compound 1.71, 1-((1R,1aR,6bR)-5-((7-oxo-5,6,7,8-tetrahydro-1,8-naphthyridin-4-yl)oxy)-1a,6b-dihydro-1H-cyclopropa[b]benzofuran-1-yl)-3-(3-(trifluoromethyl)phenyl)urea]: the figures for the IC50 against C-Raf (Y340D/Y341D) and at B-Raf (V600E) were 0.34 nM and 3 nM, respectively.

With `O=C1CCc2c(Oc3ccc4c(c3)[C@H]3[C@H](NC(=O)N[C@H]5CCCc6ccccc65)[C@H]3O4)ccnc2N1` [Compound 1.79], in the assay on A375, the EC50 came to 222 nM. Besides, the IC50 worked out at 0.39 nM on C-Raf (Y340D/Y341D) and 3.2 nM at B-Raf (V600E).

With `O=C1CCc2c(Oc3ccc4c(c3)[C@H]3[C@H](NC(=O)N[C@@H]5CCCc6ccccc65)[C@H]3O4)ccnc2N1` [Compound 1.80], in the assay with A375, the EC50 was determined as 132 nM. In addition, the IC50 at C-Raf (Y340D/Y341D) was 0.5 nM; on B-Raf (V600E), 4 nM.

Take `O=C(Nc1cc(F)c(F)cc1F)N[C@@H]1[C@H]2Oc3ccc(Oc4ccnc5c4COC(=O)N5)cc3[C@@H]12` [Compound 2.3, 1-((1S,1aS,6bS)-5-((2-oxo-2,4-dihydro-1H-pyrido[2,3-d][1,3]oxazin-5-yl)oxy)-1a,6b-dihydro-1H-cyclopropa[b]benzofuran-1-yl)-3-(2,4,5-trifluorophenyl)urea]: the EC50 in the assay with A375 came out at 190 nM. Further, the IC50 at B-Raf (V600E) is 2.6 nM.

For the compound `O=C1NCc2c(Oc3ccc4c(c3)[C@H]3[C@H](NC(=O)Nc5ccc(F)c(C(F)(F)F)c5)[C@H]3O4)ccnc2N1` [Compound 2.4, 1-(4-fluoro-3-(trifluoromethyl)phenyl)-3-((1S,1aS,6bS)-5-((2-oxo-1,2,3,4-tetrahydropyrido[2,3-d]pyrimidin-5-yl)oxy)-1a,6b-dihydro-1H-cyclopropa[b]benzofuran-1-yl)urea], the EC50 in the assay with A375 turned out to be 374 nM. Moreover, the concentration for half-maximal inhibition (IC50) on B-Raf (V600E) is 11 nM.

As for `O=C1NCc2c(Oc3ccc4c(c3)[C@H]3[C@H](NC(=O)Nc5cc(F)c(F)cc5F)[C@H]3O4)ccnc2N1` [Compound 2.5], the EC50 in the assay with A375 was 769 nM. Also, the half-maximal inhibitory concentration (IC50) on B-Raf (V600E) was 2.3 nM.

For `CNC(=O)c1cc(Oc2ccc3c(c2)[C@H]2[C@H](NC(=O)Nc4cccc(C(F)(F)F)c4)[C@H]2O3)ccn1` [Compound 2.6, N-methyl-4-(((1S,1aS,6bS)-1-(3-(3-(trifluoromethyl)phenyl)ureido)-1a,6b-dihydro-1H-cyclopropa[b]benzofuran-5-yl)oxy)picolinamide], in the assay with A375, the EC50 came to 624 nM. For the same compound, the IC50 at B-Raf (V600E) was determined as 26 nM.

As for `CNC(=O)c1cc(Oc2ccc3c(c2)[C@H]2[C@H](NC(=O)Nc4ccc(F)c(C(F)(F)F)c4)[C@H]2O3)ccn1` [Compound 2.7], the EC50 in the assay with A375 turned out to be 464 nM. In addition, on B-Raf (V600E), the IC50 was 33 nM.

As to `CNC(=O)c1cc(Oc2ccc3c(c2)[C@H]2[C@H](NC(=O)Nc4cc(F)c(F)cc4F)[C@H]2O3)ccn1` [Compound 2.8], the 50% inhibitory concentration (IC50) at wild type B-Raf (setting [2]) amounted to 17 nM; against C-Raf (Y340D/Y341D), 3 nM; at B-Raf (V600E), 13 nM.

In the case of `Nc1cc(Oc2ccc3c(c2)[C@H]2[C@H](NC(=O)Nc4cc(F)c(F)cc4F)[C@H]2O3)ccn1` [Compound 2.15], the EC50 with A375 is 10000 nM. Moreover, on B-Raf (V600E), the IC50 came to 18 nM.
